Experimental data published in article PMC3867298 (Clinical cancer research : an official journal of the …, 2010).
Where two headings read alike, the source gives them in different places. Marks after values point to notes of the source that are not given here.

Columns and labels:
[1] = test system: H929 human plasmacytoma xenografts; conditions: vs vehicle; cited from earlier work
[2] = test system: plasma soluble VEGFR2 (sVEGFR2); experiment: Plasma soluble VEGFR2 ELISA; format: in vivo, human; conditions: cycle 1, day 28 (95% CI 5,086, 6,113); baseline cycle 1 day 1 8,419 pg/mL; P < 0.001
[3] = test system: advanced solid tumors; experiment: Antitumor activity by modified RECIST and CA125; format: in vivo, human
[4] = test system: phosphohistone H3 (pHH3); experiment: Histone H3 phosphorylation in keratinocytes; format: in vivo, human; conditions: 9 paired skin biopsies at MTD, cycle 1 day 28
[5] = test system: MDA-MB-231 breast cancer xenograft; conditions: MDA-MB-231 xenograft, with reduced tumor vascularization (CD31); cited from earlier work
[6] = test system: patients with advanced solid tumors
[7] = cohort 1, 60 mg/m^2, 7 patients
[8] = cohort 2, 80 mg/m^2, 4 patients
[9] = cohort 3, 120 mg/m^2, 3 patients
[10] = cohort 4, 200 mg/m^2, 7 patients
[11] = cohort 5, 160 mg/m^2, 8 patients
[12] = expansion, 160 mg/m^2, 38 patients
[13] = treatment-related, worst grade per patient, all cycles, N = 67

For `Cc1cc(Nc2cc(N3CCN(C)CC3)nc(/C=C/c3ccccc3)n2)n[nH]1` [ENMD-2076], the Tumor growth [1] is listed as “Dose-dependent inhibition of tumor growth”, the “Mean plasma sVEGFR2” value [2] is listed as 5,600 pg/mL and the “Colorectal cancer patients with SD ≥ 12 weeks” value ([3]; 19 colorectal cancer patients, 5 patients) is listed as 26%. For the same molecule, the “Ovarian cancer patients with PR or SD ≥ 12 weeks” value ([3]; 20 ovarian cancer patients, all dose levels, twelve patients) was 60%, the “Partial responses (PR) as best response” value ([3]; 58 evaluable patients, 2 patients, 1 confirmed, both ovarian cancer) was 3% and the “Progressive disease (PD) as best response” value ([3]; 58 evaluable patients, 7 patients) was 12%. For the same molecule, the “Patients with decreases in tumor measurements from baseline not qualifying as PR” value ([3]; twenty patients) was 30%, the “Paired biopsies in which pHH3-positive cells decreased posttreatment” value [4] was 3 samples and the “Paired biopsies in which pHH3-positive cells increased” value [4] was 2 samples. For the same molecule, the “Paired biopsies in which pHH3-positive cells remained the same” value [4] was 4 samples, the Tumor response [5] was “regressions” and the “Patients with grade 3 neutropenia requiring dose delay and reduction” value ([6]; 200 mg/m^2, 3 of 7) was 43%. For the same molecule, the Patients with neutropenia ([6]; 200 mg/m^2 during dose escalation, 4 of 7) was 57%, the “Rate of grade ≥ 3 neutropenia” value ([6]; 46 patients treated at 160 mg/m^2 (2/46)) was 4% and the “Rate of grade ≥ 3 fatigue” value ([6]; 46 patients treated at 160 mg/m^2 (3/46)) was 7%. For the same molecule, the “Rate of grade ≥ 3 hypertension” value ([6]; 46 patients treated at 160 mg/m^2 (11/46)) was 24%, the “Patients with adverse events meeting DLT criteria” value ([6]; MTD expansion, 12/38, 16 events) was 32% and the “Patients requiring dose reduction” value ([6]; MTD expansion, 14/38) was 37%. For the same molecule, the “Patients with dose delays” value ([6]; MTD expansion, 24/38) was 63%, the Adrenal insufficiency ([6]; all patients) was “not observed” and the “Patients requiring dose reduction due to toxicity” value ([6]; at the MTD of 160 mg/m^2) was 33%. For the same molecule, the Patients with hypothyroidism ([6]; both in the expanded 160 mg/m^2 cohort) was 2 patients, the “No. of patients with DLT (cycle 1)” value [6, 7] was 1 ^† and the “No. of patients with dose delays” value [6, 7] was 2 (29%). For the same molecule, the “No. patients with dose reductions” value [6, 7] was 1 (14%), the “No. of patients with DLT (cycle 1)” value [6, 8] was 0 and the “No. of patients with dose delays” value [6, 8] was 3 (75%). For the same molecule, the “No. patients with dose reductions” value [6, 8] was 1 (25%), the “No. of patients with DLT (cycle 1)” value [6, 9] was 0 and the “No. of patients with dose delays” value [6, 9] was 1 (33%). The “No. patients with dose reductions” value [6, 9] was 0, the “No. of patients with dose delays” value [6, 10] was 7 (100%) and the “No. patients with dose reductions” value [6, 10] was 3 (43%). The “No. of patients with dose delays” value [6, 11] was 3 (38%), the “No. patients with dose reductions” value [6, 11] was 1 (13%) and the “Patients with fatigue of grade 3 to 4 severity” value ([6]; expanded 160 mg/m^2 cohort) was 2 patients. For the same molecule, the “Patients with tooth discoloration” value ([6]; expanded 160 mg/m^2 cohort) was “Four”, the “Patients with grade 3/4 neutropenia” value ([6]; expanded 160 mg/m^2 cohort, 2 of 38) was 5% and the “Patients with grade 1/2 neutropenia” value ([6]; expanded 160 mg/m^2 cohort, 3 of 38) was 8%. For the same molecule, the Patients with fatigue ([6]; expanded 160 mg/m^2 cohort, 12/38) was 32%, the “No. of patients with DLT (met the definition of DLT)” value [6, 12] was 12 ^§ and the “No. of patients with dose delays” value [6, 12] was 24 (63%). For the same molecule, the “No. patients with dose reductions” value [6, 12] was 14 (37%), the “Patients in whom hypertension resulted in dose delay or reduction” value ([6]; in vivo) was 16% and the “Recommended phase 2 dose” value ([6]; oral once daily, continuous dosing) was 160 mg/m^2. For the same molecule, the “Maximum tolerated dose (MTD)” value ([6]; oral, continuous once daily dosing) was 160 mg/m^2, the “Median time to onset of hypertension following initial dosing” value ([6]; range 2–60 days) was 14 days and the “Patients with hypertension of grade 3/4 severity” value ([6]; total patients) was 21%. The “Anorexia, any grade” value [6, 13] was 24%, the “Anorexia, grade 3, No. of patients” value [6, 13] was 0 and the “Anorexia, grade 4, No. of patients” value [6, 13] was 0. For the same molecule, the “Constipation, any grade” value [6, 13] was 15%, the “Constipation, any grade, No. of patients” value [6, 13] was 10 and the “Constipation, grade 3, No. of patients” value [6, 13] was 0. The “Constipation, grade 4, No. of patients” value [6, 13] was 0, the “Dehydration, any grade, No. of patients” value [6, 13] was 12 and the “Dehydration, grade 3” value [6, 13] was 1%. The “Dehydration, grade 3, No. of patients” value [6, 13] was 1, the “Dehydration, grade 4, No. of patients” value [6, 13] was 0 and the “Diarrhea, any grade, No. of patients” value [6, 13] was 17. For the same molecule, the “Diarrhea, grade 3” value [6, 13] was 3%, the “Diarrhea, grade 3, No. of patients” value [6, 13] was 2 and the “Diarrhea, grade 4, No. of patients” value [6, 13] was 0. For the same molecule, the “Dysgeusia, any grade” value [6, 13] was 10%, the “Dysgeusia, any grade, No. of patients” value [6, 13] was 7 and the “Dysgeusia, grade 3, No. of patients” value [6, 13] was 0. For the same molecule, the “Dysgeusia, grade 4, No. of patients” value [6, 13] was 0, the “Dyspnea, any grade, No. of patients” value [6, 13] was 8 and the “Dyspnea, grade 3” value [6, 13] was 4%. The “Dyspnea, grade 3, No. of patients” value [6, 13] was 3, the “Dyspnea, grade 4, No. of patients” value [6, 13] was 0 and the “Fatigue, any grade” value [6, 13] was 31%. The “Fatigue, any grade, No. of patients” value [6, 13] was 21, the “Fatigue, grade 3” value [6, 13] was 3% and the “Fatigue, grade 3, No. of patients” value [6, 13] was 2. For the same molecule, the “Fatigue, grade 4, No. of patients” value [6, 13] was 0.
